From patent US20040121398A1 (priority 2000, published 2004)

How the values were obtained:
[1] = test system: VTII and Bcl-2; assay: Far Western blotting of VTII/Bcl-2 complex formation (B10 cell extract, biotinylated VTII); type: binding, human; settings: extract of Bcl-2-expressing B10 cells, biotinylated VTII, in the presence of NWGRI
[2] = test system: B10 cells; type: cell-based, human

Substance: NWGRI
- complex formation of VTII and Bcl-2 [1]: interrupted the complex formation of VTII and Bcl-2 in a dose dependent manner
- induction of apoptotic cell death by VTII [2]: suppressed
